Assay results: ChEMBL document CHEMBL1152320, “Diterpene formamides from the tropical marine sponge Cymbastela hooperi and their antimalarial activity in vitro” (J Nat Prod, 2009)
Values after ≈ are worked out from the molar mass of the structure shown.

Key:
[1] = tested on: Plasmodium falciparum; assay: Antiplasmodial activity after 48 hrs against Plasmodium falciparum FCR3F86 by [3H]hypoxanthine uptake; type: functional, organism-based
[2] = tested on: Plasmodium falciparum; assay: Antiplasmodial activity after 48 hrs against Plasmodium falciparum D6 by [3H]hypoxanthine uptake; type: functional, organism-based
[3] = tested on: Plasmodium falciparum; assay: Antiplasmodial activity after 48 hrs against Plasmodium falciparum W2 by [3H]hypoxanthine uptake; type: functional, organism-based
[4] = tested on: KB; assay: Cytotoxicity against human KB cells assessed as [3H]hypoxanthine incorporation after 48 hrs; type: functional, cell-based

Row | SMILES | IC50 [1] [µg/mL] | IC50 [2] [µg/mL] | IC50 [3] [µg/mL] | IC50 [4] [µg/mL]
1 | C[C@@H]1C[C@@H]2C[C@H](C)[C@H]3CC[C@](C)(NC=O)[C@H]4CC[C@@H]([C@@H]2[C@H]34)[C@]1(C)NC=O | 14.8 (≈ 41 µM) | – | – | –
2 | O=C1C(O)=C([C@H]2CC[C@H](c3ccc(Cl)cc3)CC2)C(=O)c2ccccc21 [ATOVAQUONE] | 0.0004 (≈ 0.00109 µM) | 0.0002 (≈ 0.000545 µM) | 0.0008 (≈ 0.00218 µM) | > 5
3 | C[C@H]1C[C@H]2CC(C)(C)C=C3CC[C@H]4[C@@H]([C@@H]1CC[C@]4(C)NC=O)[C@@H]32 (relative stereo) | > 100 | – | – | –
4 | [C-]#[N+][C@]1(C)[C@H](C)C[C@@H]2C[C@H](C)[C@H]3CC[C@](C)(NC=O)[C@H]4CC[C@H]1[C@@H]2[C@H]34 | 0.2 (≈ 0.584 µM) | 0.8 (≈ 2.34 µM) | 0.6 (≈ 1.75 µM) | > 5

More lines, main results first:

Row | IC50 [1] [µg/mL] | IC50 [2] [µg/mL] | IC50 [3] [µg/mL] | SMILES | IC50 [4] [µg/mL]
5 | 63 (≈ 200 µM) | – | – | C=C1CC[C@H]2[C@H]3[C@H](CC[C@]2(C)NC=O)[C@@H](C)C[C@H](C=C(C)C)[C@H]13 (relative stereo) | –
6 | > 90 | – | – | C=C(C)C[C@@H]1C[C@H](C)[C@H]2CC[C@](C)(NC=O)[C@H]3CCC(=C)[C@@H]1[C@H]23 (relative stereo) | –
